Measurements reported in PubChem BioAssay (NCI).
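How tested: cells in 96-well plates exposed to compound for 48 hours at five concentrations. The concentration for full growth arrest is given as TGI.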

Columns and labels:
Assay in all cases: growth of human tumour cells (NCI), 48 h
[1] = tested on: PC-3 prostate
[2] = tested on: TK-10 renal
[3] = tested on: SF-295 CNS
[4] = tested on: OVCAR-5 ovarian
[5] = tested on: NCI-H23 lung
[6] = tested on: UACC-62 melanoma
[7] = tested on: UACC-257 melanoma
[8] = tested on: NCI/ADR-RES ovarian
[9] = tested on: COLO 205 colon
[10] = tested on: LOX IMVI melanoma
[11] = tested on: UO-31 renal
[12] = tested on: SK-OV-3 ovarian
[13] = tested on: MCF7 breast
[14] = tested on: OVCAR-4 ovarian
[15] = tested on: SK-MEL-5 melanoma
[16] = tested on: A498 renal
[17] = tested on: HS 578T breast
[18] = tested on: CCRF-CEM leukemia
[19] = tested on: MDA-MB-231 breast
[20] = tested on: SK-MEL-2 melanoma
[21] = tested on: SNB-19 CNS
[22] = tested on: SK-MEL-28 melanoma
[23] = tested on: SF-268 CNS
[24] = tested on: SNB-75 CNS
[25] = tested on: KM12 colon
[26] = tested on: U251 CNS
[27] = tested on: SR leukemia
[28] = tested on: EKVX NSCLC
[29] = tested on: SF-539 CNS
[30] = tested on: MDA-MB-435
[31] = tested on: HOP-62 NSCLC
[32] = tested on: IGROV1 ovarian
[33] = tested on: MDA-N
[34] = tested on: A549 NSCLC
[35] = tested on: OVCAR-3 ovarian
[36] = tested on: NCI-H460 lung
[37] = tested on: HOP-92 NSCLC
[38] = tested on: HT29 colon
[39] = tested on: HL-60(TB) leukemia
[40] = tested on: RXF 393 renal
[41] = tested on: HCT-116 colon
[42] = tested on: HCC-2998 colon
[43] = tested on: SN12C renal
[44] = tested on: T-47D breast
[45] = tested on: DU-145 prostate
[46] = tested on: MOLT-4 leukemia
[47] = tested on: OVCAR-8 ovarian
[48] = tested on: HCT-15 colon
[49] = tested on: SW-620 colon
[50] = tested on: K-562 leukemia
[51] = tested on: MALME-3M melanoma
[52] = tested on: ACHN renal
[53] = tested on: CAKI-1 renal
[54] = tested on: NCI-H522 lung
[55] = tested on: 786-0 renal
[56] = tested on: M14 melanoma
[57] = tested on: BT-549 breast
[58] = tested on: RPMI-8226 leukemia
[59] = tested on: NCI-H226 lung

O=C(O)c1ccc(NS(=O)(=O)Cc2ccccc2)cc1
TGI [1]: > 100 µM | TGI [2]: > 100 µM | TGI [3]: > 100 µM | TGI [4]: > 100 µM | TGI [5]: > 100 µM | TGI [6]: > 100 µM | TGI [7]: > 100 µM | TGI [8]: > 100 µM | TGI [9]: > 100 µM | TGI [10]: > 100 µM | TGI [11]: > 100 µM | TGI [12]: > 100 µM | TGI [13]: > 100 µM | TGI [14]: > 100 µM | TGI [15]: > 100 µM | TGI [16]: > 100 µM | TGI [17]: > 100 µM | TGI [18]: > 100 µM | TGI [19]: > 100 µM | TGI [20]: > 100 µM | TGI [21]: > 100 µM | TGI [22]: > 100 µM | TGI [23]: > 100 µM | TGI [24]: > 100 µM | TGI [25]: > 100 µM | TGI [26]: > 100 µM | TGI [27]: > 100 µM | TGI [28]: > 100 µM | TGI [29]: > 100 µM | TGI [30]: > 100 µM | TGI [31]: > 100 µM | TGI [32]: > 100 µM | TGI [33]: > 100 µM | TGI [34]: > 100 µM | TGI [35]: > 100 µM | TGI [36]: > 100 µM | TGI [37]: > 100 µM | TGI [38]: > 100 µM | TGI [39]: > 100 µM | TGI [40]: > 100 µM | TGI [41]: > 100 µM | TGI [42]: > 100 µM | TGI [43]: > 100 µM | TGI [44]: > 100 µM | TGI [45]: > 100 µM | TGI [46]: > 100 µM | TGI [47]: > 100 µM | TGI [48]: > 100 µM | TGI [49]: > 100 µM | TGI [50]: > 100 µM | TGI [51]: > 100 µM | TGI [52]: > 100 µM | TGI [53]: > 100 µM | TGI [54]: > 100 µM | TGI [55]: > 100 µM | TGI [56]: > 100 µM | TGI [57]: > 100 µM | TGI [58]: > 100 µM

C/C(=N/NC(=S)Nc1cccc(C)c1)c1ccccn1
TGI [1]: 7.68 µM | TGI [2]: 4.98 µM | TGI [3]: 4.89 µM | TGI [4]: 2.67 µM | TGI [5]: 9.92 µM | TGI [6]: 2.92 µM | TGI [7]: 4.44 µM | TGI [8]: 0.444 µM | TGI [9]: 1.34 µM | TGI [10]: 9.93 µM | TGI [11]: 6 µM | TGI [12]: 2.78 µM | TGI [13]: 0.224 µM | TGI [14]: 8.93 µM | TGI [15]: 1.6 µM | TGI [16]: 3.54 µM | TGI [17]: 41.1 µM | TGI [19]: 2.45 µM | TGI [20]: 4.42 µM | TGI [21]: 14.3 µM | TGI [22]: 7.61 µM | TGI [23]: 13.9 µM | TGI [24]: 5.08 µM | TGI [59]: 1.28 µM | TGI [25]: 4.12 µM | TGI [26]: 4.89 µM | TGI [27]: 2.92 µM | TGI [28]: 2.3 µM | TGI [29]: 5.62 µM | TGI [30]: 3.5 µM | TGI [31]: 4.98 µM | TGI [32]: 4.68 µM | TGI [33]: 3.61 µM | TGI [34]: 8.51 µM | TGI [35]: 0.118 µM | TGI [36]: 5.59 µM | TGI [37]: 6.12 µM | TGI [38]: 2.39 µM | TGI [39]: < 0.158 µM | TGI [40]: 3.55 µM | TGI [41]: 3.11 µM | TGI [42]: 4.18 µM | TGI [43]: 6.61 µM | TGI [44]: 12.4 µM | TGI [45]: 8.29 µM | TGI [47]: 2.33 µM | TGI [48]: 2.24 µM | TGI [49]: 5.45 µM | TGI [50]: 1.64 µM | TGI [51]: 8 µM | TGI [52]: 6.83 µM | TGI [53]: 9.07 µM | TGI [54]: 7.23 µM | TGI [55]: 4.26 µM | TGI [56]: 2.46 µM | TGI [57]: 12.2 µM | TGI [58]: 13.7 µM
